In ChEMBL document CHEMBL1201862, “PubChem BioAssay data set” (2004) one finds AC50, IC50 and EC50 data, which are given here for 11 molecules.

The source made the active and inactive calls.

For orientation: IC50 means the concentration at which inhibition is half-maximal. The EC50 is the concentration giving half of the maximal effect.

Experiment [1] addresses Scavenger receptor class B member 1 (Mus musculus, UniProt Q61009). Description: mouse SR-BI DiI-HDL uptake blockers – ldlA[mSR-BI] cells, fluorescence, cherry pick, dose response (AID 493194).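 Further: cellular uptake of fluorescent DiI-labeled HDL measured as cell fluorescence.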 It counts as functional, cell-based.
Experiment [2] has as its target T1, Dual specificity protein phosphatase 6 (Rattus norvegicus, UniProt Q64346).
T1 sequence (Q64346 whole entry): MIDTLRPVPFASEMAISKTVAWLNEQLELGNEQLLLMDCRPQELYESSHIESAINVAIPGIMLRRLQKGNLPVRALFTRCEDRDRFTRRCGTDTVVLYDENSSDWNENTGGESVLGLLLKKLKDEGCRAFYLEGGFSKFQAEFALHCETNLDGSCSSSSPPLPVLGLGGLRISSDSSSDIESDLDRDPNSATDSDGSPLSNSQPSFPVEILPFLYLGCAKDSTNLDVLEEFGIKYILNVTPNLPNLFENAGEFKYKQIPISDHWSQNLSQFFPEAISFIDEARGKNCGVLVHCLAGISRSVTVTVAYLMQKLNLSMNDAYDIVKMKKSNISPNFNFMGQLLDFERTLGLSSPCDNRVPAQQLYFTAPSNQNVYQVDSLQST
The format is functional.

For experiment [3], the target named is Glyceraldehyde-3-phosphate dehydrogenase (Homo sapiens, UniProt P04406).
Glyceraldehyde-3-phosphate dehydrogenase, sequence (P04406 whole entry): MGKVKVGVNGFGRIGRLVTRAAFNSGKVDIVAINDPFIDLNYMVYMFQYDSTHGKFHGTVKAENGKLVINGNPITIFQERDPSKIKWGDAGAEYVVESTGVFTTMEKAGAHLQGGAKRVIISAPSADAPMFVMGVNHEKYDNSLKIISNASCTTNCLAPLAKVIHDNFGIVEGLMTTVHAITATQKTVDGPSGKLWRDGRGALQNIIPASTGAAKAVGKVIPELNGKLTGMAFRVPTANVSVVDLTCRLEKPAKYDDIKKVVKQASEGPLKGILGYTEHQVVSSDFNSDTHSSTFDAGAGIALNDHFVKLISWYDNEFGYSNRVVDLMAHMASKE
Experiment [4] has as its target T1, Dual specificity protein phosphatase 6.
Experiment [5] has as its target T2, Tyrosine-protein phosphatase non-receptor type 7 (Homo sapiens, UniProt P35236).
T2 sequence (P35236 whole entry): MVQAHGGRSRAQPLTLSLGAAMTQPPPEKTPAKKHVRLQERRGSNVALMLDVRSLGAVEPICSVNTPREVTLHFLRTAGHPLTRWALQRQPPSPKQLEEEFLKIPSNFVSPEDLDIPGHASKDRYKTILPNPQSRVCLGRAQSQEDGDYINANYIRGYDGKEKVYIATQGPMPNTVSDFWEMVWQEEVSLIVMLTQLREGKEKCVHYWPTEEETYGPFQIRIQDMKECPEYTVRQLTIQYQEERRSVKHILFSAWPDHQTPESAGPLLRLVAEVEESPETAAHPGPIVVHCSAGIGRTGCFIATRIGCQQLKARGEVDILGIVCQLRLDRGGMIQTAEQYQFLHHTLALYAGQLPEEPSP
The format is functional.

Experiment [6] deals with Cytochrome P450 2C9 (Homo sapiens, UniProt P11712). Conditions: Potency.
Cytochrome P450 2C9, sequence (P11712 whole entry): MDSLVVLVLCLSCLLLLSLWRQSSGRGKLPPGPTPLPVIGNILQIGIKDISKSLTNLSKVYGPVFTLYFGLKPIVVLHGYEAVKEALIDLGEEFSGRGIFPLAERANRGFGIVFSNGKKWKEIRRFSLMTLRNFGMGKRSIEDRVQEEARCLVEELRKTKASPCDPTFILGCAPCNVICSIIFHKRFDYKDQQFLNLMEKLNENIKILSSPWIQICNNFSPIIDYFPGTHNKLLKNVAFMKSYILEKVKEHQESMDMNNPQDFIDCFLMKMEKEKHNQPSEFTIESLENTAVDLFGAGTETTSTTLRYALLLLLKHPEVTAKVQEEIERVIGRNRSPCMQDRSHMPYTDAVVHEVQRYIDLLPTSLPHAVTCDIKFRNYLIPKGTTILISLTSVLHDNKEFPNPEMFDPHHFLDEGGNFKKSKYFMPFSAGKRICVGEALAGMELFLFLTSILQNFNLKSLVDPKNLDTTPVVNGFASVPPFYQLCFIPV
Experiment [7] concerns the target T3, Cytochrome P450 2D6 (Homo sapiens, UniProt P10635). Description: qHTS Assay for Inhibitors and Substrates of Cytochrome P450 2D6. [Related pubchem assays: 410 ]. The conditions noted are these: read-out: Potency. It counts as ADME. A general note: In qHTS, concentration-response curves come from the screen itself.
In experiment [8] the target is T4, Streptokinase A (Streptococcus pyogenes serotype M1, UniProt P10520).
T4 sequence (P10520 whole entry): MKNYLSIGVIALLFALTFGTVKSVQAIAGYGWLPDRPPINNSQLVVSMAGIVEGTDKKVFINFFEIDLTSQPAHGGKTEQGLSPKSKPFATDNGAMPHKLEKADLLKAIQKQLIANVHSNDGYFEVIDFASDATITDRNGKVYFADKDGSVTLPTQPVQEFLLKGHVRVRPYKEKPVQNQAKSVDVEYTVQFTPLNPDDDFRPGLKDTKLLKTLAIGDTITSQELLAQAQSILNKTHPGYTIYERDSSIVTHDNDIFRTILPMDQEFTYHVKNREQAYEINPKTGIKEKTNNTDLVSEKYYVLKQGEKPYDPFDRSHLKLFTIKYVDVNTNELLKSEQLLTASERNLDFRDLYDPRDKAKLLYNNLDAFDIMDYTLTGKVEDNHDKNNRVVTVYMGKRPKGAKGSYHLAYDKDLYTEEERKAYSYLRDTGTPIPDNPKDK
Put plainly: viability-normalized secreted streptokinase activity reduction – plasminogen activation absorbance, OD405, dose response (AID 1914).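 Further: secreted streptokinase activity via plasminogen activation per viability signal from cell pellet.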 It counts as functional, Streptococcus pyogenes M1 GAS.

The test system of experiment [9] is Streptococcus. Description: GAS UMAA2166 growth inhibition – luminescence, BacTiterGlo, counter-screen for streptokinase expression inhibitor project, dose response (AID 1915).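 Further: potency for reduction of bacterial viability or growth.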 The format is functional, organism-based. (In general: The purpose of a counterscreen is to sort out artefacts and off-target activity.)
For experiment [10], the system named is Streptococcus sp. 'group A'. Description: Streptococcus pyogenes SK(-)GAS viability under kanamycin – luminescence, BacTiterGlo, confirmation, counter-screen for streptokinase expression inhibitor project, dose response (AID 1900). It counts as functional, organism-based.
For experiment [11], the system named is Streptococcus. Description: Luminescence Microorganism-Based Dose Response Follow up to Identify Compounds Cytotoxic to Streptococcus. [Related pubchem assays: 1677 (Project Summary), 1915, 1914, 1902 (Retest at Dose), 1900 (Counter Screen), 1662 (Primary HTS)]. The format is functional, organism-based.
Experiment [12] addresses T5, Leucine aminopeptidase (Plasmodium falciparum 3D7, UniProt Q8IL11).
T5 sequence (Q8IL11 whole entry): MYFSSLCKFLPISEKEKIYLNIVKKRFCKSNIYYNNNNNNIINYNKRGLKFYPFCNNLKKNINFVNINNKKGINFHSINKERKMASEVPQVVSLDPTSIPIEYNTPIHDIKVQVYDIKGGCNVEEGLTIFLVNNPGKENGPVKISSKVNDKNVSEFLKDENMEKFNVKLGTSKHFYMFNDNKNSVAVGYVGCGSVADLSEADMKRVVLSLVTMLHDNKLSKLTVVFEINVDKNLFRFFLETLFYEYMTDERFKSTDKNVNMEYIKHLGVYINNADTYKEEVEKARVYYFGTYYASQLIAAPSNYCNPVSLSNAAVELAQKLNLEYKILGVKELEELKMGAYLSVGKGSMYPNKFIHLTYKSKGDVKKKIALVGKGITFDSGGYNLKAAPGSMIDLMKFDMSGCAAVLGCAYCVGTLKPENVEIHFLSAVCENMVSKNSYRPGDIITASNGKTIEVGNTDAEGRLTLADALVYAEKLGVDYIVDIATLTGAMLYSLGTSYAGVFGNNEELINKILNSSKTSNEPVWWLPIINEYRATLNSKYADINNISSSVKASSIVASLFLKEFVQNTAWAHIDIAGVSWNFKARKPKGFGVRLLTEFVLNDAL
Description: P. falciparum M17LAP inhibitors, primary screen, biochemical, fluorogenic H-Leu-NHMec substrate, 1536-well (AID 1619). It counts as functional.

The target of experiment [13] is Melanin-concentrating hormone receptor 1 (Homo sapiens, UniProt Q99705). Put plainly: Fluorescence-based counterscreen for antagonists of the G-protein coupled receptor 7 (GPR7): cell-based high throughput dose response assay to identify antagonists of the melanin-concentrating hormone receptor 1 (MCHR1). It counts as functional.
Melanin-concentrating hormone receptor 1, sequence (Q99705 whole entry): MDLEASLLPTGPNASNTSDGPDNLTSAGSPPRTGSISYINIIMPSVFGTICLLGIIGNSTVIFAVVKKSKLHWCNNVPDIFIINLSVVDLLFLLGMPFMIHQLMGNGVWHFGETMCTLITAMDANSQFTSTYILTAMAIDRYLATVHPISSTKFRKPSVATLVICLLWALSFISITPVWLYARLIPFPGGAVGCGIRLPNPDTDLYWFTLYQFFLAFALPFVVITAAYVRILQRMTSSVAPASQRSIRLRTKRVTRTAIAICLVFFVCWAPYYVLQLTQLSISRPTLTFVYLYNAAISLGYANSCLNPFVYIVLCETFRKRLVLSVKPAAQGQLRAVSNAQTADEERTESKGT
In experiment [14] the target is T6, Neuropeptides B/W receptor type 1 (Homo sapiens, UniProt P48145).
T6 sequence (P48145 whole entry): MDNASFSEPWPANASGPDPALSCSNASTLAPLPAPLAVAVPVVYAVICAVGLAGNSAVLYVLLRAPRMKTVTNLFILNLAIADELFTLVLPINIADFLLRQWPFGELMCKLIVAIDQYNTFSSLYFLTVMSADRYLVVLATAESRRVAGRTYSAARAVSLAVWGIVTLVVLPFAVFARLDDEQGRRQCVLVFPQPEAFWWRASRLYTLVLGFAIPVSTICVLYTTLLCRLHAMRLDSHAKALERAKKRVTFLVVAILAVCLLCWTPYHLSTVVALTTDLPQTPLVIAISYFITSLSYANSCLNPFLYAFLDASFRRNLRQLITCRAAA
Put plainly: Fluorescence-based dose response cell-based high throughput screening assay to identify antagonists of the G-protein coupled receptor 7 (GPR7). [Related pubchem assays: 1952 (Screening assay (GPR7 antagonists).), 1880 (Summary AID.)]. The format is functional.

For experiment [15], the system named is HEK293. Put plainly: cells. The conditions noted are these: Homo sapiens.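 Further: cells exposed to compound for 14 hours overnight before viability readout.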
For experiment [16], the target named is Tumor necrosis factor (Homo sapiens, UniProt P01375). Put plainly: analog potency on TNFa NF-kB signaling – cell-based, revised, SAR follow-up (AID 2337). It counts as functional.
Tumor necrosis factor, sequence (P01375 whole entry, the tested form may be a part): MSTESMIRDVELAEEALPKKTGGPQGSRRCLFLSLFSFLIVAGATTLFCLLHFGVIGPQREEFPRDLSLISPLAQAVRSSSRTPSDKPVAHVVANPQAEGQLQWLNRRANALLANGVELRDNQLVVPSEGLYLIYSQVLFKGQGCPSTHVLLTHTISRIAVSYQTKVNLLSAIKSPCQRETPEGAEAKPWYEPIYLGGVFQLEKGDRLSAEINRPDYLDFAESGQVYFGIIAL
Experiment [17] addresses T7, Nucleotide-binding oligomerization domain-containing protein 1 (Homo sapiens, UniProt Q9Y239).
T7 sequence (Q9Y239 whole entry): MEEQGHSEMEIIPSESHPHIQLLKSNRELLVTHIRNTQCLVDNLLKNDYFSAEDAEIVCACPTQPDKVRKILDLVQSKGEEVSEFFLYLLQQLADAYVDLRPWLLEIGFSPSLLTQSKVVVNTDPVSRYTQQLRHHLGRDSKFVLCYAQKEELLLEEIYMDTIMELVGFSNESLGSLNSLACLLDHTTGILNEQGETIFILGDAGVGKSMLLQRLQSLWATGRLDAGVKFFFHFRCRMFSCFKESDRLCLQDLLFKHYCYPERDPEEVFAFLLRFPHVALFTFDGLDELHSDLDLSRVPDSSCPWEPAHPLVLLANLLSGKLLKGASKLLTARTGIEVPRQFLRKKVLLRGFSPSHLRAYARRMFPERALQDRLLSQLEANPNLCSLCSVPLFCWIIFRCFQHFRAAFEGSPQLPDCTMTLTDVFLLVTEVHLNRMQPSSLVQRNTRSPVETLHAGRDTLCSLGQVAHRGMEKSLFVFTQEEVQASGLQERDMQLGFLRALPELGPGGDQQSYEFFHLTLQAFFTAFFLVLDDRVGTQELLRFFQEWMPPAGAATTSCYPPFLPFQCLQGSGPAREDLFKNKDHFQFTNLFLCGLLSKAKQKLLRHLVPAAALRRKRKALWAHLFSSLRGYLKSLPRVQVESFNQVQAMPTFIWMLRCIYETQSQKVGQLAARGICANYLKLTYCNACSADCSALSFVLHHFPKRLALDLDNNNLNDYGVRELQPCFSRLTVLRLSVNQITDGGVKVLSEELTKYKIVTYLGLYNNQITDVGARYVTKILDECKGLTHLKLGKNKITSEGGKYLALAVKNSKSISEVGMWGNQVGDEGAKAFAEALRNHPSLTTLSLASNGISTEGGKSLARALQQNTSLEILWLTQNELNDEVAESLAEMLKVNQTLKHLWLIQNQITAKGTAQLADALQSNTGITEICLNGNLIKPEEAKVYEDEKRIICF
Put plainly: blockers of NOD1 pathway activity – revised, SAR follow-up (AID 2333). The format is functional.

The target of experiment [18] is Nucleotide-binding oligomerization domain-containing protein 2 (Homo sapiens, UniProt Q9HC29). Put plainly: PubChem AID 2334. It counts as functional.
Nucleotide-binding oligomerization domain-containing protein 2, sequence (Q9HC29 whole entry, the tested form may be a part): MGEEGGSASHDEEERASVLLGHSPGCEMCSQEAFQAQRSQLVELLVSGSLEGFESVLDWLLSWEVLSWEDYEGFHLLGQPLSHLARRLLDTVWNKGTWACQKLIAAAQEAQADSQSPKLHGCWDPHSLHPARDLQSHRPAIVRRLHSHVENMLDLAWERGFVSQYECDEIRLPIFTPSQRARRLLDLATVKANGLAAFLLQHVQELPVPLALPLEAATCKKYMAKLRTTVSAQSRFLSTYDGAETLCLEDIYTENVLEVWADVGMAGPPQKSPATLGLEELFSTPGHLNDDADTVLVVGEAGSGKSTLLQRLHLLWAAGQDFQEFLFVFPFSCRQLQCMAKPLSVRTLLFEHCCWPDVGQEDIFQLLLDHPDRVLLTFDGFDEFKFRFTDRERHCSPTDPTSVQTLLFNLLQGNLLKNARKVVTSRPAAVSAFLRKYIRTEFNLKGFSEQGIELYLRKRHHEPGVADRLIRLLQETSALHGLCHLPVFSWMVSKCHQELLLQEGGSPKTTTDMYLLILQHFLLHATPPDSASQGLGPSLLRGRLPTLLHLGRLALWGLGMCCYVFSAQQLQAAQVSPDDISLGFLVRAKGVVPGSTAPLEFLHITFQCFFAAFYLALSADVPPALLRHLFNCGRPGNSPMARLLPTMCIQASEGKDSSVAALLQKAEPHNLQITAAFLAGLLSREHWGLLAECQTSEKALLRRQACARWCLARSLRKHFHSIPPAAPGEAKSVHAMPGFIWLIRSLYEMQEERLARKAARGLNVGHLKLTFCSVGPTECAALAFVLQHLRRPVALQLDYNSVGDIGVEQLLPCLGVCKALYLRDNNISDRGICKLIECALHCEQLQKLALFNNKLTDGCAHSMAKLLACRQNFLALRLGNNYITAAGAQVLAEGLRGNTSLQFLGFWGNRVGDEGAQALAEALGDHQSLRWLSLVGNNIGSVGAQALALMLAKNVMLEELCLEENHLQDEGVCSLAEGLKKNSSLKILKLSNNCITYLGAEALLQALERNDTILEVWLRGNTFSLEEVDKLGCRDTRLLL
Experiment [19] concerns the target Genome polyprotein (dengue virus type 2, UniProt P29990). Description: flavivirus cap methylation enzyme inhibition – biochemical, confirmation dose response, primary screen (AID 588689). The format is functional.
For experiment [20], the target named is T3, Cytochrome P450 2D6.

T3 sequence (P10635 whole entry): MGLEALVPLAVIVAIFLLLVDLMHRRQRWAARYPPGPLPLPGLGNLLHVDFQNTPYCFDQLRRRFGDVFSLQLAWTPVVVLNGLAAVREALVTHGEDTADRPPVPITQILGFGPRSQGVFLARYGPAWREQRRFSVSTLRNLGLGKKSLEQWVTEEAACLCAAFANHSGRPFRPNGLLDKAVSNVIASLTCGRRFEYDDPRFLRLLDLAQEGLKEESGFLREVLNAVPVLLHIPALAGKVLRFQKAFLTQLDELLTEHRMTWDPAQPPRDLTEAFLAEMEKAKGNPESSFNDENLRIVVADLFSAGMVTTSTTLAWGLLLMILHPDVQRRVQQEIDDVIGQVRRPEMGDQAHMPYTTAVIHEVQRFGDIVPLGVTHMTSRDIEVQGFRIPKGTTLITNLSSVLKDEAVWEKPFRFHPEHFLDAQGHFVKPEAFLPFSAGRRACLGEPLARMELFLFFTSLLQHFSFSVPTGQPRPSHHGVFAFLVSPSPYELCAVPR
Scavenger receptor class B member 1, sequence (Q61009 whole entry): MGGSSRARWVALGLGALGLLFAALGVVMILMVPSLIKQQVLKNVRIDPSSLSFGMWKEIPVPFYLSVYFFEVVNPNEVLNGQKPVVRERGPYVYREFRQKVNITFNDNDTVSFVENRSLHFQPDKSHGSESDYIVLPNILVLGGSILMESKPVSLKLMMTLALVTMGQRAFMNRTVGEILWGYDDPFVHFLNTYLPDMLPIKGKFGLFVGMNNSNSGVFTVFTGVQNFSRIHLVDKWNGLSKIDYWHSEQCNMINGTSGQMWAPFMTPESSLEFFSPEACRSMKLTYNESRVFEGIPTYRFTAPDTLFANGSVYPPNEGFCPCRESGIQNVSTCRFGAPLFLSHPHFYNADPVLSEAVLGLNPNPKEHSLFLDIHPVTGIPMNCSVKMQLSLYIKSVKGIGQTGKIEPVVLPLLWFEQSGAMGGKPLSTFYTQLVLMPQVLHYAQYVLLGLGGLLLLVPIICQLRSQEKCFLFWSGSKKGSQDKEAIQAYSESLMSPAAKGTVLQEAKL
Genome polyprotein, sequence (P29990 2492-3391 limits assumed): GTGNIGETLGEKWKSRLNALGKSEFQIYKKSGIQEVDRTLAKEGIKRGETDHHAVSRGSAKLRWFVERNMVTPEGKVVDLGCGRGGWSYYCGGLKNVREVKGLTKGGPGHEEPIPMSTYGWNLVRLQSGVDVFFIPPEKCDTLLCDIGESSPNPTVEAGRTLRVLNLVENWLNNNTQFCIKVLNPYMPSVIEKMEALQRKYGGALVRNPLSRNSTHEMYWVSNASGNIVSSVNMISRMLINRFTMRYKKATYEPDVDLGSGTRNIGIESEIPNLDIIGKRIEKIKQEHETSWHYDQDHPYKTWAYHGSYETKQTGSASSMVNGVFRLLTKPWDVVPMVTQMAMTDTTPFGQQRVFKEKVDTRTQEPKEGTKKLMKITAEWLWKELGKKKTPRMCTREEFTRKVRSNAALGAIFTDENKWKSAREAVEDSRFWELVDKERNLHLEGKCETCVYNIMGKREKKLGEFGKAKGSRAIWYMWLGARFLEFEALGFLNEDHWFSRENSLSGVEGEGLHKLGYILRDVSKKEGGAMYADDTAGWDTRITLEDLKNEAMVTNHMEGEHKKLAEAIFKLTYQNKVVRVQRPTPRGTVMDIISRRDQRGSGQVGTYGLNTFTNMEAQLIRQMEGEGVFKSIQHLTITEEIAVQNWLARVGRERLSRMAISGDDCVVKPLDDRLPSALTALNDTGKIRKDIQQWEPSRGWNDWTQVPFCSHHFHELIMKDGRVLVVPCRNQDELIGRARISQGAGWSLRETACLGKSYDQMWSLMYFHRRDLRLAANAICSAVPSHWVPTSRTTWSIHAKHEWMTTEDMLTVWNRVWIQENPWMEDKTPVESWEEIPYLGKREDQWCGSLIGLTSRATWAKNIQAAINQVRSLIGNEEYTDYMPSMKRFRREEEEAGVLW

Consider `CCn1c(COc2c(C)cccc2C)nnc1SCC(=O)N1CCN(c2ccccc2)CC1`, for which the AC50 in experiment [1] was 23 µM (active).

On to `CCCCCCn1c(=O)nc(NCc2ccccc2OC)[nH]c1=O`, for which the IC50 is > 100 µM (inactive) in experiment [2], > 100 µM (not active) in experiment [3], > 100 µM (inactive) in experiment [4] and > 100 µM (not active) in experiment [5].

`COC(=O)NC(/C(C(=O)OC)=C(\C)NCc1ccccc1)c1ccc(Cl)cc1` (configuration not stated): the AC50 in [6] was 6.31 µM (inconclusive); in [7], 5.01 µM (inconclusive).

On to `Cc1ccc(-c2nn(CCC(=O)O)cc2/C=C\C(=O)c2ccc(Br)cc2)cc1`, for which the EC50 in experiment [8] was 2.33 µM (active); in experiment [9], > 50 µM (not active); in experiment [10], 4.41 µM (active); in experiment [11], 25.4 µM (active). Besides, the 50% inhibitory concentration (IC50) in [12] is 34 µM (active).

For `COc1ccccc1N(C(=O)c1ccco1)C(C(=O)NC1CCCCC1)c1cc(OC)c(OC)c(OC)c1` (configuration not stated), the IC50 in experiment [13] and in experiment [14] was > 43.8 µM (not active) each time.

In the case of `N#C/C(=C(/O)COC(=O)CSc1ccc2ccccc2c1)c1nc2ccccc2[nH]1`, the IC50 in experiment [15], in experiment [16], in experiment [17] and in experiment [18] was > 20 µM (inactive) in each case.

In the case of `CCOC(=O)C1Nc2c(O)ccc(C)c2C2C=CCC12` (configuration not stated), the IC50 in [2] is > 100 µM (inactive); in experiment [3] it was > 100 µM (not active); in [4] it was > 100 µM (inactive); in [5], > 100 µM (not active).

With `N#Cc1c(-c2ccccc2)nc(SCc2cccc(C(F)(F)F)c2)[nH]c1=O`, the EC50 in experiment [8] is 6.34 µM (active). Moreover, the 50% inhibitory concentration (IC50) is 42.7 µM (active) in experiment [19], 8.05 µM (active) in experiment [16], 6.48 µM (active) in [17] and 7.5 µM (active) in [18].

On to `CCOC(=O)OCC1OC(c2ccc(C(C)=O)cc2)C=CC1Oc1ccc(-c2ccccc2)cc1` (configuration not stated), for which the AC50 in experiment [6] is 5.01 µM (inconclusive).

Regarding `Cc1cc(-c2csc(N)n2)c(C)n1-c1ccc(Cl)c(Cl)c1`, the AC50 in [1] is 12.9 µM (active).

Consider `Cc1ccc(NCC(=O)N/N=C/c2ccc(OC(=O)c3ccco3)cc2)cc1`, for which the 50% inhibitory concentration (IC50) in experiment [13] and in [14] was > 43.8 µM (not active) each time. In experiment [20], the AC50 was 15.8 µM (inconclusive).
